Laboratory results taken from patent publication EP3763226A1, “COMPOSITION FOR REDUCING HAIR LOSS AND IMPROVING HAIR GROWTH IN CASES OF ANDROGENETIC ALOPECIA” (Merz Pharma GmbH & Co. KGaA, priority 2019, dated 2021).

What was measured:
[1] = tested on: ex-vivo Kultur von Haarfollikeln; settings: ex vivo culture of hair follicles; cited from earlier work
5-α-Reduktase Typ I = target: T1, 5-α-Reduktase Typ I (Homo sapiens, UniProt P18405); assay: Cell-free in vitro 5α-reductase type I inhibition assay (HEK I cell homogenate, androstenedione conversion, LC-HRMS); assay type: biochemical; settings: concentration giving 50% inhibition; Abbildung 1; read-out: IC50-Wert für die 5 alpha Reduktase vom Typ I
T1 construct: expressed in transfected cells; host or cells: HEK293 (HEK I), stably transfected; gift of Prof; R. W. Hartmann, Saarland University; particulate fraction of the cell homogenate used
T1 sequence (P18405 1-259): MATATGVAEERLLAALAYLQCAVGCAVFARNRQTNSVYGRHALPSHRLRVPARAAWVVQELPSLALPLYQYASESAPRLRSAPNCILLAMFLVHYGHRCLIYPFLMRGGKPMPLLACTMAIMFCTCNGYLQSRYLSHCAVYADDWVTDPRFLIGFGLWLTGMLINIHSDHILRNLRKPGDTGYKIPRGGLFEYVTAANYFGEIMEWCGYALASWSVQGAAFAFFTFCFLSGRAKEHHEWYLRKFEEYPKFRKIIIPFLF
Procedure: (§1) Die HEK I Zellen exprimieren rekombinante 5 alpha Reduktase vom Typ I, während die HEK II Zellen rekombinante 5 alpha Reduktase vom Typ II exprimieren.
(§2) HEK I und HEK II Zellen wurden in DMEM (Dulbecco's modified eagle medium, ccpro GmbH) (pH 7.4) mit 10 % FCS (Fetal calf serum, PAN), Penicillin/Streptomycin (100 U/ml und 100 µg/ml) und 0.5 mg/ml Geneticin-418-sulfat in einer befeuchteten 5 % CO2 Atmosphäre bei 37°C kultiviert.
(§3) Herstellung der 5-α-Reduktase Typ I und II enthaltenen Zellfraktionen: Für den Zell-freien in vitro assays wurden HEK I oder HEK II geerntet, durch Zentrifugation (500 x g) vom Zellkulturmedium befreit und re-suspended in einem Homogenisierungs-Puffer bestehend aus 50 mM Tris-HCI (pH 7.4), 300 mM Saccharose, 0.1 mM EDTA, 10 mM DTT and 100 µM PMSF. Durch Einfrieren bei - 196 °C und Auftauen auf Eis, wurden die Zellen solubilisiert. Nach einer Inkubations-Zeitraum von 30 min bei 4°C mit 1 mg/ml DNAse in 50 mM MgCl2 und zwischenzeitlich kräftigen Schütteln, wurde das erhaltene Homogenisat bei 20,200 x g in einer gekühlten Zentrifuge für 50 min bei 4°C zentrifugiert. Das Pellet wurde im Homogenisierungs-Puffer re-suspendiert und wieder bei 20,200 x g für 30 Minuten bei at 4°C zentrifugiert. Diese Prozedur wurde zweimal wiederholt. […] Der Protein-Gehalt wurde gemäß der BCA-Methode mit dem kommerziell erhältlichen BCA-Protein Assay Kit von Pierce quantifiziert. […]

5-α-Reduktase Typ II = target: T2, 5-α-Reduktase Typ II (Homo sapiens, UniProt P31213); assay: Cell-free in vitro 5α-reductase type II inhibition assay (HEK II cell homogenate, androstenedione conversion, LC-HRMS); assay type: biochemical
T2 sequence (P31213 1-254): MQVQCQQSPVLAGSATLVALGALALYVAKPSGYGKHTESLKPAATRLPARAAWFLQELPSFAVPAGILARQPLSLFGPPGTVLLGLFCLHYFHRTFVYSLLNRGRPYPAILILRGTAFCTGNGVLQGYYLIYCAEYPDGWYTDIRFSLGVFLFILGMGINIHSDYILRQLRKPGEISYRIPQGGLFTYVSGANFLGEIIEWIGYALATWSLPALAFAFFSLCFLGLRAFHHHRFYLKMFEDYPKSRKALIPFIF
Procedure: as §1, §2, §3

Row | SMILES | Haarwachstum [1] | IC50 (5-α-Reduktase Typ I) [nM] | IC50 (5-α-Reduktase Typ II; concentration giving 50% inhibition, Abbildung 1, read-out: IC50-Wert für die 5 alpha Reduktase vom Typ II) [nM] | Wirkung auf die 5-alpha Reduktase vom Typ II stärker als auf Typ I (5-α-Reduktase Typ II; ratio of the concentrations for 50% inhibition, type I vs type II)
1 | O=C(O[C@@H]1Cc2c(O)cc(O)cc2O[C@@H]1c1cc(O)c(O)c(O)c1)c1cc(O)c(O)c(O)c1 [Epigallocatechin-3-gallate] | stimuliert |  |  | 
2 | CC(C)(C)NC(=O)[C@H]1CC[C@H]2[C@@H]3CC[C@H]4NC(=O)C=C[C@]4(C)[C@H]3CC[C@]12C [Finasterid] |  | 376 | 1.89 | ca. 200 fach
